The record followed here is patent US8470534B2, “Methods of predicting resistance or sensitivity to therapies for cancer” (priority 2006, dated 2013).

One assay relates to MCF7 cells. The experiment in a line: Cell growth assay in CDT/Tam over 9 days. It counts as cell-based, human. As for the experimental part: To understand the impact of RB deficiency on the response to hormone deprivation therapy, cells are cultured in CDT, CDT/Tam, or in the presence of pure antiestrogen, ICI182780 (CDT/ICI). Following treatment with these modalities, cells are labeled with BrdU to determine the influence of each agent on cell-cycle progression and the corresponding influence of RB knockdown on this response (FIG. 4B). These experiments are recapitulated in the polyclonal populations of T47D and Zr-75-1 donor and siRb88 cells (FIG. 4C). […] To elucidate the long-term growth effects of these therapies, cell proliferation assays are performed over 9 days. RB-proficient and -deficient MCF7 cells are seeded at equal densities and cultured in CDT/Tam (FIG. 4D). […] Similar results are evident in the same experiments with both T47D and Zr-75-1 RB-proficient and -deficient polyclonal pools (FIG. 4E).
(§1) To study the effect of estrogen depletion, cells are cultured for 72 hours in phenol red-free DMEM supplemented with 10% CDT serum with addition of 10^−9 M 4-HydroxyTam or 10^−6 M ICI where indicated. Cell growth assays are performed by trypsinizing cells and counting by trypan blue exclusion every 3 days.

The test system of assay [1] is MCF7, T47D, and Zr-75-1 cells. In words: Immunoblot of cyclin D1 and RB phosphorylation after hormone deprivation with Tam. The assay is classed as cell-based, human. The note with it: wild-type cells; CDT serum in addition to Tam, 72 hours. On the procedure: RB-deficient cells are able to bypass estrogen ablation therapy. To determine the effect of first-line breast cancer antiestrogen therapies on RB function, cells are exposed to several therapeutically relevant conditions. Specifically, wild-type MCF7, T47D, and Zr-75-1 cells are cultured in medium containing either FBS or charcoal dextran-treated (CDT) serum in addition to Tam, so as to antagonize ER function. […] U20S and SaOS2 cells are included as controls for RB and PI 61NK4a expression levels, respectively (FIG. 4a).
as §1
Cells are harvested by trypsinization and lysed in RIPA buffer. Equal amounts of protein, as determined by Bio-Rad DC assay, are resolved by SDS-PAGE. Specific proteins are detected by standard immunoblotting procedures using the following primary antibodies: p16INK4a (F-12; 1:500 dilution), cyclin D1 (H295), PCNA (pc10), cyclin E (HE12), cyclin A (C-19), MCM7 (141.2), E2F3 (C-18), cdk4 (H-22), lamin B (M-20), p21 (C-19), p53 (Ab-6; 1:500 dilution), RB phospho ser 780 (9307S; 1:500 dilution) and anti-RB (G3-245; 1:100 dilution). […]
In general terms: A western blot detects proteins with antibodies after separation by electrophoresis.

Assay [2] deals with MCF7 donor or siRb xenograft tumors. The experiment in a line: Nude mouse xenograft therapeutic study. It counts as in vivo, nude mice. The note with it: for tumor response (size at 4-day intervals): E2 pellet removed. As for the experimental part: The xenograft model system is then utilized to test the response of RB-deficient tumors to CDDP therapy. Tumors are developed in the flanks of mice by injecting MCF7 donor or siRb cells into the flanks of mice and implanting a […] (E2) pellet into the back. When tumors reached 100-110 mm^3, mice received 5 mg/kg CDDP every 4 days for 5 courses.
To assess the role of RB in the therapeutic response of MCF7 cells in vivo, the xenograft model is again employed. Upon the attainment of tumors of approximately 100-120 mm^3, mice are deprived of estrogen and treated with Tam. […] (FIG. 4F). […] All tumors are weighed upon exclusion, and RB-deficient tumors are more than 3 times heavier than control tumors following Tam therapy (FIG. 4G).
Five- to 8-week-old female ovariectomized athymic nude mice are anesthetized, and an E2 pellet (1.7 mg/pellet, 90-day release) or placebo is surgically implanted in the back. Following implantation, 200 μl of a PBS- and phenol red-free Matrigel matrix basement membrane, solution (3:1) containing 2×10^6 cells is injected subcutaneously into the flank, or contralaterally where noted. Tumor volume is measured with calipers every 4 days using the equation V=0.52 (width)^2 ×(length). In the therapeutic studies, when tumor volume reaches 100-120 mm^3, animals are placed into 1 of 3 therapeutic groups (each group containing at least 6 animals): control animals retaining the estrogen pellet, antiestrogen-treated animals, or CDDP-treated animals. Animals in the antiestrogen treatment group are anesthetized, the estrogen pellet is surgically removed, and a Tam pellet (5 mg/pellet, 60-day release) implanted. The CDDP-treated animals receive 5 mg/kg CDDP injected i.p. on a q4dx5 schedule (every 4 days for 5 courses). All animals are injected i.p. with 150 mg/kg BrdU (Sigma-Aldrich) 1 hour prior to euthanization. Xenograft tumors are weighed and fixed in 10% neutral buffered formalin, paraffin embedded, and cut into 5-ÿm sections. For immunohistochemical staining, sections are deparaffinized in xylene and rehydrated through a graded series of ethanol/water solutions. A BrdU detection kit is utilized as recommended by the manufacturer. BrdU incorporation is scored in a blinded manner, and at least 500 cells per section are counted from several random fields.

The subject of assay [3] is ER-positive human breast tumors. The experiment in a line: Recurrence outcome of ER-positive breast cancer patients on Tam monotherapy by RB/E2F target gene expression group. The assay is classed as in vivo. On the procedure: To determine the significance of RB/E2F target gene expression in human breast cancer, a tumor microarray data set representing 60 breast cancer patients with ER-positive disease who are treated with Tam monotherapy is analyzed. The tumor specimens in all cases are both micro- and macrodissected. […] This clustering placed the macro- and micro-dissected samples from 59 of 60 patients in the same gene expression groups, with only 1 tumor signature split between the high and medium gene expression groups on the condition tree.
To address the importance of the RB deficiency signature on therapeutic response, patient outcome is examined. […] For each patient, the time to disease recurrence is known, and a recurrence-free survival curve is generated (FIG. 6C). Patients responded poorly to Tam in the high expression group, wherein the median recurrence-free survival is 62.5 months, and only 35% remained recurrence free. […] Thus, compromised control of the RB/E2F axis is associated with poor response to Tam in human breast cancer.

Where [4] appears, read: high expression group, Tam monotherapy.

Consider `CC/C(=C(\c1ccccc1)c1ccc(OCCN(C)C)cc1)c1ccccc1` [Tam, tamoxifen], for which the “cell proliferation over 9 days” value in the assay on MCF7 cells (MCF7 cells lacking RB cultured in CDT/Tam) is “continue to proliferate”; in the assay with MCF7 cells (control (RB-proficient) MCF7 cells cultured in CDT/Tam), “did not exhibit cell proliferation”. Moreover, the “RB phosphorylation (immunoblot)” value in assay [1] is given as “RB dephosphorylation”. Further, the “cyclin D1 levels (immunoblot)” value in assay [1] is “cyclin D1 levels decreased”. Further, the “tumor response (size at 4-day intervals)” value in assay [2] (RB-deficient MCF7 tumors, Tam pellet) was “did not regress”; in assay [2] (RB-proficient MCF7 tumors, Tam pellet 5 mg/pellet) it was “regressing to nearly immeasurable sizes”. The “tumor size reached in the presence of Tam” value in assay [2] (RB-deficient MCF7 tumors, therapy started at approximately 100-120 mm^3) is roughly 150 mm^3. The “tumor weight, RB-deficient tumors relative to control tumors” value in assay [2] (following Tam therapy) was “more than 3 times”. Further, the median recurrence-free survival in assay [3] (setting [4]) stood at 62.5 months. For the same molecule, the “patients remaining recurrence free” value in assay [3] (setting [4]) is reported as 35%. In addition, the “patients remaining disease free” value in assay [3] (low/medium RB target gene expression groups, Tam therapy) is “greater than 62%”. Moreover, the “incidence of cancer recurrence” value in assay [3] (patients in the high RB/E2F target gene group, Tam monotherapy) is given as 65%; in assay [3] (patients in the other 2 groups (low/medium), Tam monotherapy) it was 38%.
